From paper PMC6373163, “Potential in vitro anti-allergic, anti-inflammatory and cytotoxic activities of ethanolic extract of Baliospermum montanum root, its major components and a validated HPLC method” (BMC Complementary and Alternative Medicine, 2019)
In brackets after ≈: the same amount, converted by molar mass.

Experiments:
[1] = test system: β-hexosaminidase released from RBL-2H3 cells; test: Inhibition of β-hexosaminidase release from IgE-sensitized, DNP-BSA-stimulated RBL-2H3 cells (anti-allergic activity); assay type: cell-based, rat; conditions: for inhibition at 1 µg/mL / inhibition at 10 µg/mL / inhibition at 50 µg/mL / IC50 / inhibition at 0.1 µg/mL: Rattus norvegicus, mean ± SD, triplicate; for inhibition at 1 µg/mL: 1 μg/ml; for inhibition at 10 µg/mL: 10 μg/ml; for inhibition at 50 µg/mL: 50 μg/ml; for inhibition at 0.1 µg/mL: 0.1 μg/ml
Experimental: Inhibitory activity on β-hexosaminidase released from rat basophilic leukemia cells (RBL-2H3) was evaluated following the report of Juckmetha and co-workers. RBL-2H3 cells were cultured in MEM supplemented with 15% FBS, penicillin/streptomycin (each 100 μg/mL). Cells were seeded in 24-well plate with the concentration of 5 × 10^5 cells/well and incubated in 5% CO2 at 37 °C for 1.5 h. RBL-2H3 were sensitized with 0.45 μg/mL of Anti-DNP IgE and incubated at 37 °C in 5% CO2 for 24 h. Cells were then washed with 400 μL of Siraganian buffer (Buffer A) [119 mM NaCl, 5 mM KCl, 5.6 mM glucose, 0.4 mM MgCl2, 1 mM CaCl2, 25 mM piperazine-N,N′-bis (2-ethanesulfonic acid) (PIPES), 0.1% BSA, and 40 mM NaOH, pH 7.2]. Subsequently, 160 μL of buffer A was added into the wells and incubated at 37 °C for 10 min. The stock solution of the sample was diluted in DMSO and the working samples were diluted with buffer A. The concentrations of the working samples were 0.1 μg/mL, 1 μg/mL, 10 μg/mL and 50 μg/mL. The serially diluted samples (20 μL) were added to each well and incubated for 10 min. The reaction of antigen-antibody was obtained by adding 20 μL of antigen (DNP-BSA) to produce a final concentration of 10 μg/mL and incubated at 37 °C for 20 min. The amount of β-hexosaminidase released from the degranulation was determined by adding 50 μL of the substrate, PNAG (1 mM in 0.1 M citrate buffer, pH 4.5). The enzyme reaction was stopped by adding 200 μL of 0.1 M carbonate buffer pH 10.0. The product of enzyme reaction, p-nitrophenol, was analyzed by measuring absorbance at wavelength 405 nm. Chlorpheniramine was used as positive control. The percentage of inhibition was calculated by the following equation. Inhibition%=1−T−B−N/C−B−N×100
Where • C = Optical density of control: [+] DNP-BSA, [−] Test sample; • T = Optical density of test sample: [+] DNP-BSA, [+] Test sample; • B = Optical density of blank: […], [+] Test sample; • N = Optical density of normal: [−] DNP-BSA, [−] Test sample.

[2] = test system: β-hexosaminidase released from RBL-2H3 cells; test: as above; assay type: cell-based; conditions: Rattus norvegicus, 100 μg/ml, mean ± SD, triplicate
[3] = test system: NO production of LPS-induced RAW 264.7 cells; test: Inhibition of NO production in LPS-induced RAW 264.7 cells (Griess reagent); assay type: cell-based, murine; conditions: Mus musculus; for inhibition at 0.1 µg/mL: RAW264.7, 0.1 μg/mL; for inhibition at 0.1 µg/mL / inhibition at 1 µg/mL / inhibition at 10 µg/mL / inhibition at 50 µg/mL: mean ± SD, read-out: %Inhibition of LPS-induced nitric oxide release; for inhibition at 1 µg/mL: RAW264.7, 1 μg/mL; for inhibition at 10 µg/mL: RAW264.7, 10 μg/mL; for inhibition at 50 µg/mL: RAW264.7, 50 μg/mL; for IC50: RAW264.7, mean ± SD, triplicate, read-out: IC50, LPS-induced nitric oxide release
Experimental: The inhibitory activity of crude extracts and isolated compounds on NO production of LPS-induced RAW 264.7 cells was investigated according to a previously reported method. RAW 264.7 cells were cultured in RPMI medium supplemented with 10% FBS, penicillin/streptomycin (each 100 units/mL) and incubated at 37 °C in 5% CO2 with 95% humidity. The cells were seeded into 96-well plate (1 × 10^5 cells per well) and incubated for 24 h. Subsequently, the cells were induced by LPS at the final concentration of 2 ng/mL and the serially diluted samples (0.1 μg/mL, 1 μg/mL, 10 μg/mL and 50 μg/mL) were added. The plate was incubated for 24 h before being tested for NO accumulation and cell viability. Prednisolone was used as positive control. The accumulated NO released from the LPS-induced RAW 264.7 cells was determined by using Griess’s reagent (1% sulfanilamide and 0.1% N-(1- naphthyl) ethylenediamine dihydrochloride in 2.5% phosphoric acid). The supernatant in each well (100 μL) was transferred to another 96-well plate and 100 μL of Griess’s reagent was added. The optical density of reaction was measured at 570 nm. The inhibitory activity (%) of NO production was calculated by the following equation and the IC50 values were calculated. Inhibition%=ODcontrol‐ODsample/ODcontrol×100

[4] = Viability of LPS-treated RAW 264.7 cells (MTT); assay type: cell-based, murine; conditions: mouse
Experimental: The viability of the LPS treated RAW 264.7 cells were colorimetrically determined by using 3-(4, 5-dimethyl-2-thiazolyl)-2, 5-diphenyl-2H-tetrazolium bromide (MTT) method. MTT solution (10 μL) was added into each well and the plate was incubated for 2 h. The remained formazan crystal in each well, after removing the medium, was dissolved by 0.04 M HCl in isopropanol (100 μL). The optical density was measured by using microplate reader at wavelength 570 nm.

HepG2 = test: Cytotoxic activity by sulforhodamine B (SRB) assay, HepG2; assay type: cell-based; conditions: for Selective index: HaCaT versus HepG2; for IC50: Homo sapiens, HepG2, SRB, 72 h exposure, 72 h recovery
Experimental: (§1) The crude extracts and isolated compounds were evaluated for cytotoxic activity by using sulforhodamine B (SRB) assay against two cancerous liver cells (HepG2 and KKU-M156) and a normal cells (HaCaT). The SRB protocol has been described previously. HepG2 was cultured in MEM; KKU-M156 was cultured in HAM F-12 media and HaCaT was cultured in DMEM. All cultured media were supplemented with 10% FBS, penicillin/streptomycin (each 100 units/mL). All cells were incubated in 5% CO2 at 37 °C with 95% humidity. Based on the growth curve, each cell was seeded into 96-well plate (100 μL per well) with optimal density (HepG2: 3 × 10^3 cells per well, KKU-M156: 2 × 10^3 cells per well and HaCaT: 8 × 10^3 cells per well). Seeded cells were incubated at 37 °C in a 5% CO2 with 95% humidity for 24 h. Cells were then treated with 100 μL of different concentrations of sample solution (0.1 μg/mL, 1 μg/mL, 10 μg/mL and 50 μg/mL). DMSO at the same concentration as the sample (2% v/v) was used as the control solvent. Cell cultures were incubated for the exposure time of 72 h. After the exposure time, the medium was removed and the plate was washed with 200 μL phosphate buffer saline (PBS) and 200 μL fresh medium was added into each well. The plates were then incubated for 72 h for the recovery period. The cells were then fixed by adding 100 μL of 40% trichloroacetic acid and the plates left at 4 °C for 45 min. After the plates were washed, 50 μL of SRB solution (0.4% w/v in acetic acid) was added into each well and the cells were allowed to be strained for 30 min. The stained cells were dissolved by using 100 μL of 10 mM Tris base pH 10.5. The %inhibition was calculated using the following equation. Inhibition%=ODcontrol‐ODsample/ODcontrol×100

KKU-M156 = test: Cytotoxic activity by sulforhodamine B (SRB) assay, KKU-M156; assay type: cell-based; conditions: for Selective index: HaCaT versus KKU-M156; for IC50: KKU-M156, SRB, 72 h exposure, 72 h recovery
Experimental: as §1

[5] = Cytotoxic activity by sulforhodamine B (SRB) assay, normal cells HaCaT; assay type: cell-based; conditions: human, 72 h exposure, 72 h recovery
Experimental: as §1

[6] = test system: NO production of LPS-induced RAW 264.7 cells; test: Inhibition of NO production in LPS-induced RAW 264.7 cells (Griess reagent); assay type: cell-based, murine; conditions: Mus musculus, RAW264.7, 0.01 μg/mL, mean ± SD, read-out: %Inhibition of LPS-induced nitric oxide release

Row | Compound | inhibition at 1 µg/mL [1] | inhibition at 10 µg/mL [1] | inhibition at 50 µg/mL [1] | IC50 [1] | inhibition at 0.1 µg/mL [1] | inhibition at 0.1 µg/mL [3] | inhibition at 1 µg/mL [3] | inhibition at 10 µg/mL [3] | inhibition at 50 µg/mL [3] | IC50 [3] | viability at 0.1 μg/mL [4] | viability at 1 μg/mL [4] | viability at 10 μg/mL [4] | viability at 50 μg/mL [4] | Selective index (HepG2) | IC50 (HepG2) | Selective index (KKU-M156) | IC50 (KKU-M156) | IC50 at 72 h [5] | also measured
1 | CN(C)CCC(c1ccc(Cl)cc1)c1ccccn1 (centres unmarked) [Chlorpheniramine, reference compound] | 14.9 ± 1.57% | 36.2 ± 2.84% | 71.4 ± 11% | 17.7 ± 1.61 µg/mL | – | – | – | – | – | – | – | – | – | – | – | – | – | – | – | inhibition at 100 µg/mL [2]: 81.3 ± 9.51%
2 | CCC(=O)c1cc(OC)c(OC)c(OC)c1 [Compound 2, 1-(3′,4′,5′-trimethoxyphenyl) propan-1-one] | 15.1 ± 1.71% | 30.4 ± 6.7% | 75.2 ± 6.47% | 26.2 ± 6.06 µg/mL | -5.37 ± 2.3% | 7.09 ± 6.86% | 11.1 ± 9.89% | 8.69 ± 6.93% | 58.8 ± 3.59% | 33.6 ± 5.25 µg/mL (≈ 150 µM) | 94.5% | 88.8% | 80.8% | 90.4% | > 2.10 | 47.6 ± 1.2 µg/mL (≈ 212 µM) | > 1.04 | 95.65 ± 0.48 µg/mL (≈ 427 µM) | > 100 µg/mL | –
3 | CCC(=O)c1cc(OC)c(OC)cc1O [Compound 3, 1-(2′-hydroxy-4′, 5′-dimethoxyphenyl) propan-1-one] | 8.52 ± 2.93% | 17.4 ± 5.72% | 60.8 ± 8.98% | 44.4 ± 7.33 µg/mL | -14.2 ± 5.67% | -0.82 ± 3.26% | 2.64 ± 0.31% | 14.6 ± 3.43% | 34.4 ± 3.07% | > 50 µg/mL | 102% | 97% | 97.3% | 91.6% | > 1.11 | 90.3 ± 5.65 µg/mL (≈ 430 µM) | > 1.20 | 83.4 ± 5.2 µg/mL (≈ 397 µM) | > 100 µg/mL | anti-allergic activity (in words) ([1]; judged from IC50): moderate activity
4 | CC[C@]1(O)C[C@H]2CN(CCc3c([nH]c4ccccc34)[C@@](C(=O)OC)(c3cc4c(cc3OC)N(C=O)[C@H]3[C@@](O)(C(=O)OC)[C@H](OC(C)=O)[C@]5(CC)C=CCN6CC[C@]43[C@@H]65)C2)C1 [Vincristine, reference compound] | – | – | – | – | – | – | – | – | – | – | – | – | – | – | < 0.008 | 0.013 ± 0.0006 µg/mL (≈ 0.0158 µM) | < 0.033 | 0.003 ± 0.0015 µg/mL (≈ 0.00364 µM) | < 0.0001 µg/mL | –
5 | CCC(=O)c1ccc(OC)c(OC)c1 [Compound 1, 1-(3′,4′-dimethoxyphenyl) propan-1-one] | 4.84 ± 3.46% | 29.4 ± 2.01% | 77.7 ± 3.6% | 21.2 ± 2.01 µg/mL | -7.88 ± 3.01% | 2.66 ± 0.23% | 3.91 ± 3.03% | 14.4 ± 1.71% | 69.2 ± 2.49% | 40.4 ± 1.32 µg/mL (≈ 208 µM) | 84.7% | 89.7% | 84.7% | 80.5% | > 1.15 | 87.1 ± 1.36 µg/mL (≈ 448 µM) | > 1.71 | 58.3 ± 5.95 µg/mL (≈ 300 µM) | > 100 µg/mL | –
6 | C[C@]12C=CC(=O)C=C1CC[C@@H]1[C@@H]2[C@@H](O)C[C@@]2(C)[C@H]1CC[C@]2(O)C(=O)CO [Prednisolone, reference compound] | – | – | – | – | – | 47.7 ± 6.24% | 69.9 ± 3.76% | 77.9 ± 8.12% | – | 0.11 ± 0.02 µg/mL (≈ 0.305 µM) | 84.3% | 89.5% | 80.8% | – | – | – | – | – | – | viability at 0.01 μg/mL ([4]; 0.01 μg/mL): 100%; inhibition at 0.01 µg/mL [6]: 19.8 ± 3.43%
